The values that follow come from ChEMBL document CHEMBL1148943, “Estrogenic and anticarcinogenic properties of kurarinone, a lavandulyl flavanone from the roots of Sophora flavescens” (J Nat Prod, 2004).

Experiment [1] is described as follows: Cytotoxicity against human MCF7/6 cells at 40 uM after 72 hrs by SRB assay. In kind it is functional. The settings on record: MCF7/6, 72 h. A general note: Sulforhodamine B stains cellular protein and so reports cell mass.
Experiment [2] is described as follows: Cytotoxicity against human MCF7/6 cells after 72 hrs by SRB assay. Type of experiment: functional, cell-based. The settings on record: MCF7/6, 72 h.
Experiment [3] addresses T1, Estrogen receptor (Homo sapiens, UniProt P03372).
T1 sequence (P03372 whole entry): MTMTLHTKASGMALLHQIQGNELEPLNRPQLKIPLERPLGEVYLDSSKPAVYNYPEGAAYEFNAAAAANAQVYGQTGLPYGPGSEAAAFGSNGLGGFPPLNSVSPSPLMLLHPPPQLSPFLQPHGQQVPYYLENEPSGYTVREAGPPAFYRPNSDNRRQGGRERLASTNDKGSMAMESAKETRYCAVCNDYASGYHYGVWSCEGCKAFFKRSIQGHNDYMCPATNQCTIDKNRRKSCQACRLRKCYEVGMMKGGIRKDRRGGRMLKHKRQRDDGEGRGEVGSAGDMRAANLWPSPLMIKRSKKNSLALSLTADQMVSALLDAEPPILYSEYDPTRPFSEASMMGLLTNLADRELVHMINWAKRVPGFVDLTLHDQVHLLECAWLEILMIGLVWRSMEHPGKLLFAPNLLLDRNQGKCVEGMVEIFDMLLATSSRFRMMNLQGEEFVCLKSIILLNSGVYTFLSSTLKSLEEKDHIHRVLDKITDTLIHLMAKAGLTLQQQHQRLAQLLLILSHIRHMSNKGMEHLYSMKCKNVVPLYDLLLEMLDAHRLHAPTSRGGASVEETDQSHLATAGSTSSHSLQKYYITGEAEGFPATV
Nature of the experiment: Estrogenic activity at estrogen receptor in human Ishikawa Var-1 cells assessed as stimulation of alkaline phosphatase activity measured by metabolism of p-nitrophenol phosphatase after 72 hrs. Type of experiment: cell-based.

In experiment [4] the target is T1, Estrogen receptor. Nature of the experiment: Estrogenic activity at human estrogen receptor expressing Saccharomyces cerevisiae carrying estrogen responsive sequence containing plasmid assessed as metabolism of chlorophenol res beta-D-galactopyranoside.
A short description of experiment [5]: Cytotoxicity against human MCF7/6 cells at 80 uM after 72 hrs by SRB assay. Type of experiment: functional. The settings on record: MCF7/6, 72 h.

Molecules are shown by their SMILES. Bounds are passed on as bounds.

For orientation: inhibition means the drop in the measured response relative to a control, in per cent. The low end stands for a response near the control, the high end for a response far below the control. A word on the IC50: it is the point on the concentration scale where inhibition reaches its midpoint. A lower IC50 goes with greater potency. A word on the EC50: it is the concentration giving half of the maximal effect. Turning to `C=C(C)C(CC=C(C)C)Cc1c(O)cc(OC)c2c1O[C@H](c1ccc(O)cc1O)CC2=O` (stereo not given in full) [KURARINONE], the inhibition at 40 µM in experiment [1] was found to be 60%. Further, the concentration for half-maximal inhibition (IC50) in experiment [2] turned out to be 22.2 µM. The concentration for a half-maximal effect (EC50) at Estrogen receptor [3] amounted to 1.66 µM; on Estrogen receptor [4] it was 4.6 µM. The compound further came in with an inhibition at 80 µM in experiment [5] greater than 80%.
